Active and inactive are the calls of the source. The rule behind the calls is not given here.
Columns and labels:
A-375 [1] = assay: Cytotoxicity against human A375 cells assessed as cell growth inhibition after 48 hrs by sulforhodamine B assay; assay type: functional, cell-based; settings: A-375, 48 h
HCT-116 [2] = assay: Antitumor activity against human HCT116 cells xenografted in nude BALB/c mouse assessed as reduction in volume of growing subcutaneous tumor at 10 mg/kg, ip administered twice a week for 3 weeks; assay type: functional, organism-based
HCT-116 [3] = assay: Antitumor activity against human HCT116 cells xenografted in nude BALB/c mouse assessed as tumor growth inhibition at 10 mg/kg, ip administered twice a week for 3 weeks relative to control; assay type: functional; settings: HCT-116, ip, 504 h, read-out: TGI
HeLa [4] = assay: Antitumor activity against human HeLa cells xenografted in nude BALB/c mouse assessed as tumor growth inhibition at 10 mg/kg, ip administered every other day for 21 days and observed for 6 days before sacrifice relative to control; assay type: functional; settings: read-out: TGI
HeLa [5] = assay: Antitumor activity against human HeLa cells xenografted in nude BALB/c mouse assessed as suppression of excised tumor size at 10 mg/kg, ip administered every other day for 21 days and observed for 6 days before sacrifice relative to control; assay type: functional
[6] = Toxicity in nude BALB/c mouse xenografted with human A375 cells assessed as body weight loss at 10 mg/kg, ip measured on day 17 and 21; assay type: organism-based; settings: in vivo
[7] = Toxicity in BALB/c mouse assessed as mortality at 5 mg/kg, ip dosed daily and measured on day 25; assay type: organism-based; settings: in vivo
[8] = Toxicity in BALB/c mouse assessed as mortality at 2.5 mg/kg, ip administered daily for 28 days; assay type: organism-based; settings: in vivo, read-out: Activity
A2780 = assay: Growth inhibition human A2780 cells after 72 hrs by MTS assay; assay type: functional, cell-based; settings: A2780, 72 h
HCT-116 [9] = assay: Induction of apoptosis in human HCT116 cells assessed as viable cells at 5.86 nM after 48 hrs by annexin V/propidium iodide-double staining based flow cytometry (reference value: 88.3%); assay type: functional; settings: HCT-116, 48 h, read-out: Activity
HCT-116 [10] = assay: Induction of apoptosis in human HCT116 cells assessed as early apoptotic cells at 5.86 nM after 48 hrs by annexin V/propidium iodide-double staining based flow cytometry (reference value: 4.8%); assay type: functional
HCT-116 [11] = assay: Induction of apoptosis in human HCT116 cells assessed as late apoptotic cells at 5.86 nM after 48 hrs by annexin V/propidium iodide-double staining based flow cytometry (reference value: 4.6%); assay type: functional
HCT-116 [12] = assay: Induction of apoptosis in human HCT116 cells assessed as necrotic cells at 5.86 nM after 48 hrs by annexin V/propidium iodide-double staining based flow cytometry (reference value: […]); assay type: functional
[13] = Toxicity in human HCT116 cells xenografted nude BALB/c mouse assessed as tumor growth inhibition at 7.5 mg/kg, ip administered daily for 11 days; assay type: organism-based; settings: in vivo, 264 h
HCT-116 [14] = assay: Cytotoxicity against human HCT116 cells assessed as cell growth inhibition after 48 hrs by sulforhodamine B assay; assay type: functional, cell-based; settings: HCT-116, 48 h
HCT-116 [15] = assay: Cytotoxicity against human HCT116 cells assessed as cell growth inhibition after 24 hrs by sulforhodamine B assay; assay type: functional, cell-based; settings: HCT-116, 24 h
HCT-116 [16] = assay: Antiproliferative activity against human HCT116 cells assessed as inhibition of colony formation at 1.77 uM after 14 days by crystal violet-staining based assay; assay type: functional, cell-based
HCT-116 [17] = assay: Antitumor activity against human HCT116 cells xenografted in nude BALB/c mouse assessed as tumor growth inhibition at 20 mg/kg, ip administered daily for 21 days relative to control; assay type: functional; settings: HCT-116, ip, 504 h, read-out: TGI
HCT-116 [18] = assay: Antitumor activity against human HCT116 cells xenografted in nude BALB/c mouse assessed as tumor growth inhibition at 10 mg/kg, ip administered daily for 21 days relative to control; assay type: functional; settings: HCT-116, ip, 504 h, read-out: TGI
HCT-116 [19] = assay: Antitumor activity against human HCT116 cells xenografted in nude BALB/c mouse assessed as tumor growth inhibition at 20 mg/kg, ip administered every other day for 21 days relative to control; assay type: functional; settings: HCT-116, ip, 504 h, read-out: TGI
[20] = Toxicity in nude BALB/c mouse xenografted with human HCT116 cells assessed as body weight loss at 30 mg/kg, ip administered daily for 3 weeks; assay type: organism-based; settings: in vivo, 504 h
[21] = Toxicity in nude BALB/c mouse xenografted with human HCT116 cells assessed as body weight loss at 10 to 20 mg/kg, ip measured on day 10 and 11; assay type: organism-based; settings: in vivo
[22] = Toxicity in nude BALB/c mouse xenografted with human HCT116 cells assessed as body weight loss at 40 mg/kg, administered every other day for 21 days; assay type: organism-based; settings: in vivo, 504 h
HeLa [23] = assay: Antitumor activity against human HeLa cells xenografted in nude BALB/c mouse assessed as tumor growth inhibition at 30 mg/kg, ip administered every other day for 21 days and observed for 6 days before sacrifice relative to control; assay type: functional; settings: read-out: TGI
HeLa [24] = assay: Antitumor activity against human HeLa cells xenografted in nude BALB/c mouse assessed as tumor growth inhibition at 20 mg/kg, ip administered every other day for 21 days and observed for 6 days before sacrifice relative to control; assay type: functional; settings: read-out: TGI
HeLa [25] = assay: Antitumor activity against human HeLa cells xenografted in nude BALB/c mouse assessed as suppression of excised tumor size at 30 mg/kg, ip administered every other day for 21 days and observed for 6 days before sacrifice relative to control; assay type: functional
HeLa [26] = assay: Antitumor activity against human HeLa cells xenografted in nude BALB/c mouse assessed as suppression of excised tumor size at 20 mg/kg, ip administered every other day for 21 days and observed for 6 days before sacrifice relative to control; assay type: functional
[27] = Toxicity in nude BALB/c mouse xenografted with human HeLa cells assessed as body weight loss at 20 mg/kg, administered every other day for 21 days; assay type: organism-based; settings: in vivo, 504 h
[28] = Toxicity in nude BALB/c mouse xenografted with human HeLa cells assessed as body weight loss at 30 mg/kg, administered every other day for 21 days; assay type: organism-based; settings: in vivo, 504 h
A-375 [29] = assay: Antitumor activity against human A375 cells xenografted in nude BALB/c mouse assessed as tumor growth inhibition at 15 mg/kg, ip administered every other day for 23 days relative to control; assay type: functional; settings: A-375, ip, 552 h, read-out: TGI
A-375 [30] = assay: Antitumor activity against human A375 cells xenografted in nude BALB/c mouse assessed as tumor growth inhibition at 7.5 mg/kg, ip administered every other day for 23 days relative to control; assay type: functional; settings: A-375, ip, 552 h, read-out: TGI
A-375 [31] = assay: Antitumor activity against human A375 cells xenografted in nude BALB/c mouse assessed as suppression of tumor volume at 15 mg/kg, ip administered every other day for 23 days relative to control; assay type: functional; settings: A-375, ip, 552 h, read-out: TGI
A-375 [32] = assay: Antitumor activity against human A375 cells xenografted in nude BALB/c mouse assessed as suppression of tumor volume at 7.5 mg/kg, ip administered every other day for 23 days relative to control; assay type: functional; settings: A-375, ip, 552 h, read-out: TGI
[33] = Toxicity in nude BALB/c mouse xenografted with human A375 cells assessed as body weight loss at 15 mg/kg, ip administered every other day for 23 days; assay type: organism-based; settings: in vivo, 552 h
HCT-116 [34] = assay: Induction of cellular senescence in human HCT116 cells at 0.22 uM after 48 hrs by SA-beta-gal-staining based assay; assay type: functional, cell-based
HCT-116 [35] = assay: Induction of cellular senescence in human HCT116 cells assessed as up-regulation of TP53 gene at 0.22 uM after 48 hrs by qPCR assay; assay type: functional, cell-based
HCT-116 [36] = assay: Induction of cellular senescence in human HCT116 cells assessed as up-regulation of CDKN1A gene at 0.22 uM after 48 hrs by qPCR assay; assay type: functional, cell-based
HCT-116 [37] = assay: Induction of cellular senescence in human HCT116 cells assessed as up-regulation of p21 protein expression at 0.05 to 0.2 ug/ml after 48 hrs by Western blot analysis; assay type: functional, cell-based
HCT-116 [38] = assay: Induction of cellular senescence in human HCT116 cells assessed as up-regulation of p21 protein expression at 0.22 uM after 48 hrs in presence of p21 siRNA by SA-beta-gal-staining based Western blot analysis; assay type: functional, cell-based
HT-29 = assay: Growth inhibition human HT-29 cells after 72 hrs by MTS assay; assay type: functional, cell-based
HCT-116 [39] = assay: Antiproliferative activity against human HCT116 cells xenografted in BALB/c mouse at 20 mg/kg, administered every other day for 3 weeks by Ki67-staining based assay; assay type: functional, organism-based
[40] = Toxicity in nude BALB/c mouse xenografted with human HCT116 cells assessed as body weight loss at 10 mg/kg, ip administered daily for 3 weeks; assay type: organism-based; settings: in vivo, 504 h
HCT-116 [41] = assay: Induction of cellular senescence in human HCT116 cells assessed as up-regulation of p16 protein expression at 0.05 to 0.2 ug/ml after 48 hrs by Western blot analysis; assay type: functional, cell-based
Mus musculus [42] = assay: Induction of cellular senescence in BALB/c mouse xenografted with human HCT116 cells assessed as up-regulation of p21 protein expression at 20 mg/kg, administered every other day for 3 weeks by immunohistochemical analysis; assay type: functional, organism-based
Mus musculus [43] = assay: Induction of cellular senescence in BALB/c mouse xenografted with human HCT116 cells assessed as up-regulation of p16 protein expression at 20 mg/kg, administered every other day for 3 weeks by immunohistochemical analysis; assay type: functional, organism-based
Mus musculus [44] = assay: Effect on p27 protein expression in BALB/c mouse xenografted with human HCT116 cells at 20 mg/kg, administered every other day for 3 weeks by immunohistochemical analysis; assay type: functional, organism-based

SMILES: CC(=O)O[C@H]1C(=O)[C@@]2(C)[C@H]([C@H](OC(=O)c3ccccc3)[C@]3(O)C[C@H](OC(=O)[C@H](O)[C@@H](NC(=O)c4ccccc4)c4ccccc4)C(C)=C1C3(C)C)[C@]1(OC(C)=O)CO[C@@H]1C[C@@H]2O [PACLITAXEL]
- IC50 (A-375 [1]): 2 nM
- Activity (HCT-116 [2]): Active
- inhibition in vivo at 10 mg/kg (HCT-116 [3]): 52.6%
- inhibition in vivo at 10 mg/kg (HeLa [4]): 46.5%
- Activity (HeLa [5]): 48.9%
- Activity [6]: Toxic
- Activity [7]: Toxic
- mortality at 672 h [8]: 30%
- IC50 (A2780): 1.5 nM
- viability at 0.00586 µM (HCT-116 [9]): 67.3%
- Activity (HCT-116 [10]): 14.1%
- Activity (HCT-116 [11]): 9.4%
- Activity (HCT-116 [12]): 9.2%
- Activity [13]: Toxic

SMILES: CC(C)=CCC/C(C)=C/[C@H]1OC(=O)C[C@]12C[C@H](OC(=O)c1ccc(N(C)C)cc1)C=CC2=O
- IC50 (HCT-116 [14]): 1690 nM
- IC50 (HCT-116 [15]): 2570 nM
- Activity (HCT-116 [16]): Active
- inhibition in vivo at 20 mg/kg (HCT-116 [17]): 57.1%
- inhibition in vivo at 10 mg/kg (HCT-116 [18]): 51%
- inhibition in vivo at 20 mg/kg (HCT-116 [19]): 40 to 48.3%
- Activity [20]: 2 g
- Activity [21]: Toxic
- Activity [22]: Non-Toxic
- inhibition in vivo at 30 mg/kg (HeLa [23]): 75.9%
- inhibition in vivo at 20 mg/kg (HeLa [24]): 54.7%
- inhibition in vivo at 10 mg/kg (HeLa [4]): 17.2%
- Activity (HeLa [25]): 76.9%
- Activity (HeLa [26]): 55.4%
- Activity (HeLa [5]): 29.6%
- Activity [27]: 0.9 g
- Activity [28]: 2.2 g
- inhibition in vivo at 15 mg/kg (A-375 [29]): 19.4%
- inhibition in vivo at 7.5 mg/kg (A-375 [30]): 20.6%
- inhibition in vivo at 15 mg/kg (A-375 [31]): 39.4%
- inhibition in vivo at 7.5 mg/kg (A-375 [32]): 39.6%
- Activity [33]: 1.5 g
- Activity (HCT-116 [34]): Active
- Activity (HCT-116 [35]): Active
- Activity (HCT-116 [36]): Active
- Activity (HCT-116 [37]): Active
- Activity (HCT-116 [38]): inactive
- growth inhibition (GI) (HT-29): Active
- Activity (HCT-116 [39]): Active
- Activity [40]: Non-Toxic
- Activity (HCT-116 [41]): Active
- Activity (Mus musculus [42]): Active
- Activity (Mus musculus [43]): Active
- Activity (Mus musculus [44]): inactive
